Assay results taken from paper PMC7866225, “Microwave-Assisted Synthesis of (Piperidin-1-yl)quinolin-3-yl)methylene)hydrazinecarbothioamides as Potent Inhibitors of Cholinesterases: A Biochemical and In Silico Approach” (Molecules, 2021).

Experiments:
[1] = target: Butyrylcholinesterase (BChE) (Equus caballus, UniProt P81908); experiment: biochemical; conditions: Ellman's method, triplicate; read-out: Butyrylcholinesterse (BChE) IC50 ± SEM
Procedure: (§1) Modified Ellman’s method was adopted to investigate the inhibitory potential of newly synthesized compounds against cholinesterase enzymes. The assay protocol involved 96-well plates (100 μL per well). Each well contained 20 μL of assay buffer solution, 10 μL of test sample, and 10 μL of 0.5 U/mg of AChE (for AChE inhibition assay) or 10 μL of 3.4 U/mg of BChE (for BChE inhibition assay). This mixture was incubated at 25 °C for 10 min followed by the addition of substrate (10 μL). For AChE inhibition assay, acetylthiocholine iodide (ATCI, 1 mM) while for BChE assay, butyrylthiocholine chloride (BTCCl, 1 mM), was added. This mixture was incubated for 15 min at 37 °C. Ellman reagent (5,5′-dithio-bis(2-nitrobenzoic acid), DTNB, 3 mM) was added. […] Blank assay was also performed. All the analyses were performed in triplicate. IC50 values were also calculated for the synthesized compounds in GraphPad prism 5.0. using nonlinear regression method.

[2] = target: Acetylcholinesterase (AChE) (Electrophorus electricus, UniProt O42275); experiment: biochemical; conditions: Ellman's method, triplicate; read-out: Acetylcholinesterase (AChE) IC50 ± SEM
Acetylcholinesterase (AChE), sequence (O42275 24-633): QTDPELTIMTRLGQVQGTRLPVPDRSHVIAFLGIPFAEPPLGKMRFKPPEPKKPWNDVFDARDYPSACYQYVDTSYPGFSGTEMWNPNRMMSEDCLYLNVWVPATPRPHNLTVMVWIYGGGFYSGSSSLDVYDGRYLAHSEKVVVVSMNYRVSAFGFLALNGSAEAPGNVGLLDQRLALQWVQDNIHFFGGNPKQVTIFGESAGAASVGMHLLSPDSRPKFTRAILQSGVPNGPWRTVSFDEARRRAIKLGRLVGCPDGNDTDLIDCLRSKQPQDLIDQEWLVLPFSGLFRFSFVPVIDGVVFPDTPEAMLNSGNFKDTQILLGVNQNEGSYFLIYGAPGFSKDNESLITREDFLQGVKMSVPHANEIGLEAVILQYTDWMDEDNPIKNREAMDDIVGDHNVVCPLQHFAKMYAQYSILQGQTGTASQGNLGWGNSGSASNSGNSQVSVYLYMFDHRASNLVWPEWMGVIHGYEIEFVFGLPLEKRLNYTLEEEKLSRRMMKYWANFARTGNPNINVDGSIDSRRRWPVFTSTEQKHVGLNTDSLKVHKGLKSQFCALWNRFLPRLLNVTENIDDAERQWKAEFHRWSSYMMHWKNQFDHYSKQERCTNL
Procedure: as §1

[3] = In vitro cytotoxicity, MTT assay; assay type: cell-based; conditions: human, HepG2 cells, 24 h, control = 100, read-out: Cell Viability; for viability at 24 h, 50 μg/mL: HepG2, 50 μg/mL; for viability at 24 h, 100 μg/mL: HepG2, 100 μg/mL; for viability at 24 h, 200 μg/mL: HepG2, 200 μg/mL; for viability at 24 h, 500 μg/mL: HepG2, 500 μg/mL; for viability at 24 h, 1000 μg/mL: HepG2, 1000 μg/mL
Procedure: (§2) HepG2 cell line was obtained from the cell culture laboratory established in The University of Lahore. These cell lines were preserved in cryo vials present in liquid nitrogen. Cryo vials were revived for further processing.
(§3) The cryo vials obtained from liquid nitrogen cylinder were thawed. Then HepG2 cells were cultured in the culturing flask in which DMEM-HG along with 10% fetal bovine serum (FBS), supplemented with […] (Sigma) and 100 U/mL streptomycin (Sigma) were added. Cultures were maintained in a humidified incubator supplied with 5% CO2 at 37 °C. Experiments were performed in triplicates. When cultured HepG2 cells achieved 70–80% confluence their subculturing was conducted. For splitting, the cells attached to the walls of the culturing flask were washed with 1× phosphate buffer saline (PBS) and incubated with 0.05% trypsin-EDTA until cells detached from the surface of culturing flask. The detachment of the cells was confirmed by observing the flask under the inverted microscope. A few drops of FBS were added to the flask and mixed well by stirring. The mixture was centrifuged at 2000 rpm for 5 min. After centrifugation the supernatant was removed, and pellet was resuspended. HepG2 cells were cultured onto 96-well plates for measurement of cell viability. Treatment was given for both compounds at a concentration of 0–1000 µg/mL for 24 h.
(§4) After 4 h formazan crystals were solubilized with 10% sodium dodecylsulphate (SDS) (Invitrogen Inc.) and absorbance was taken at 570 nm. Percentage viability was calculated according to the following formula:% Viable cells = ((abs sample − abs blank) / (abs control − abs blank)) × 100 (1) where abs stands for absorbance.

[4] = tested on: HepG2 cells; experiment: In vitro cytotoxicity, MTT assay; assay type: cell-based; conditions: for Status: HepG2, MTT, 0–1000 µg/mL, 24 h
Procedure: as §2, §3, §4

Butyrylcholinesterase (BChE), sequence (P81908 whole entry): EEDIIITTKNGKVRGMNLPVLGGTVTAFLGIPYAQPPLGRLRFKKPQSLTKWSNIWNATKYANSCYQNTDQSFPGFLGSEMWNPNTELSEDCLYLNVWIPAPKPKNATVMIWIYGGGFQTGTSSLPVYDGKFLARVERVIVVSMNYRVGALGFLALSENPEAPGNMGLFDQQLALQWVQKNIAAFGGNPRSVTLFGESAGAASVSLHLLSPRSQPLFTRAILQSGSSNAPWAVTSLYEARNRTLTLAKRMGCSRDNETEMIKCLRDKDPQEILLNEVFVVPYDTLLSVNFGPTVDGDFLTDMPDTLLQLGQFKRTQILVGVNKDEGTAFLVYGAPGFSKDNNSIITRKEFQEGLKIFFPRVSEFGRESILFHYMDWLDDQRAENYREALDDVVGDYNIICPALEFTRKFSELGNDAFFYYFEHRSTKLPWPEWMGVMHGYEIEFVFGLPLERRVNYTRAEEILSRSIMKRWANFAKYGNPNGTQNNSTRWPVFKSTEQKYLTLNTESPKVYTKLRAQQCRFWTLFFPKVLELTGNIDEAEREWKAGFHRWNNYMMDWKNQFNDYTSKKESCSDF

SMILES	IC50 [1]	IC50 [2]	viability at 24 h, 50 μg/mL [3]	viability at 24 h, 100 μg/mL [3]	viability at 24 h, 200 μg/mL [3]	viability at 24 h, 500 μg/mL [3]	viability at 24 h, 1000 μg/mL [3]	Status [4]	IC50 ([4]; HepG2, standard drug)
Cc1cccc2cc(C=NNC(N)=S)c(N3CCCCC3)nc12 [Compound 6a, 2-((8-Methyl-2-(piperidin-1-yl)quinolin-3-yl)methylene)hydrazinecarbothioamide]	60.02 ± 0.04 µM	36.25 ± 0.36 µM	82.5%	86.3%	80.6%	83.3%	77.9%	Cytotoxic	–
Cc1ccc2nc(N3CCCCC3)c(C=NNC(=S)Nc3ccccc3Cl)cc2c1 [Compound 5e, N-(2-Chlorophenyl)-2-((6-methyl-2-(piperidin-1-yl)quinolin-3-yl)methylene)hydrazine carbothioamide]	40.26 ± 0.17 µM	35.2 ± 0.54 µM	94.2%	97.2%	158%	196%	76.3%	Cytotoxic	–
Cc1cccc2cc(C=NNC(=S)NCc3ccccc3)c(N3CCCCC3)nc12 [Compound 6l, N-Benzyl-2-((8-methyl-2-(piperidin-1-yl)quinolin-3-yl)methylene)hydrazinecarbothioamide]	41 ± 0.89 µM	57.25 ± 0.03 µM	103%	105%	107%	138%	157%	Proliferative	–
Cc1cccc2cc(C=NNC(=S)Nc3ccccc3F)c(N3CCCCC3)nc12 [Compound 6h, N-(2-Fluorophenyl)-2-((8-methyl-2-(piperidin-1-yl)quinolin-3-yl)methylene)hydrazine carbothioamide]	45.12 ± 0.19 µM	40.23 ± 0.25 µM	100%	110%	126%	151%	202%	Proliferative	–
Cc1cccc2cc(C=NNC(=S)Nc3ccccc3Cl)c(N3CCCCC3)nc12 [Compound 6e, N-(2-Chlorophenyl)-2-((8-methyl-2-(piperidin-1-yl)quinolin-3-yl)methylene)hydrazine carbothioamide]	37.1 ± 0.59 µM	32.11 ± 0.15 µM	102%	112%	167%	180%	212%	Proliferative	–
N.N.[Cl][Pt][Cl] [cisplatin, reference compound]	–	–	–	–	–	–	–	–	20 µg/mL
Cc1cccc2cc(C=NNC(=S)Nc3cccc(F)c3)c(N3CCCCC3)nc12 [Compound 6i, N-(3-Fluorophenyl)-2-((8-methyl-2-(piperidin-1-yl)quinolin-3-yl)methylene)hydrazine carbothioamide]	51.11 ± 0.28 µM	15.8 ± 1.3 µM	95.5%	102%	131%	112%	186%	Proliferative	–
Cc1ccc2nc(N3CCCCC3)c(C=NNC(=S)Nc3ccc(Cl)cc3)cc2c1 [Compound 5g, N-(4-Chlorophenyl)-2-((6-methyl-2-(piperidin-1-yl)quinolin-3-yl)methylene)hydrazine carbothioamide]	23.1 ± 0.11 µM	19.85 ± 0.14 µM	84.3%	96.4%	94.1%	122%	135%	Proliferative	–
Cc1ccc2nc(N3CCCCC3)c(C=NNC(=S)NCc3ccccc3)cc2c1 [Compound 5l, N-Benzyl-2-((6-methyl-2-(piperidin-1-yl)quinolin-3-yl)methylene)hydrazinecarbothioamide]	45.02 ± 0.38 µM	35.1 ± 1.2 µM	101%	101%	107%	109%	133%	Proliferative	–
Cc1ccc2nc(N3CCCCC3)c(C=NNC(=S)Nc3cccc(F)c3)cc2c1 [Compound 5i, N-(3-Fluorophenyl)-2-((6-methyl-2-(piperidin-1-yl)quinolin-3-yl)methylene)hydrazine carbothioamide]	36.23 ± 0.02 µM	24.1 ± 0.43 µM	118%	99.4%	97.2%	99.4%	149%	Proliferative	–
CCc1ccc(NC(=S)NN=Cc2cc3cc(C)ccc3nc2N2CCCCC2)cc1 [Compound 5k, N-(4-Ethylphenyl)-2-((6-methyl-2-(piperidin-1-yl)quinolin-3-yl)methylene)hydrazine carbothioamide]	32 ± 0.87 µM	30.6 ± 0.56 µM	111%	110%	99.6%	106%	132%	Proliferative	–
Cc1ccc2nc(N3CCCCC3)c(C=NNC(=S)Nc3ccccc3F)cc2c1 [Compound 5h, N-(2-Fluorophenyl)-2-((6-methyl-2-(piperidin-1-yl)quinolin-3-yl)methylene)hydrazine carbothioamide]	25.1 ± 0.99 µM	31.3 ± 0.37 µM	113%	121%	83.8%	151%	209%	Proliferative	–
Cc1ccc2nc(N3CCCCC3)c(C=NNC(=S)Nc3c(C)cccc3C)cc2c1 [Compound 5d, N-(2,6-Dimethylphenyl)-2-((6-methyl-2-(piperidin-1-yl)quinolin-3-yl)methylene)hydrazine carbothioamide]	29.8 ± 1.2 µM	25.9 ± 0.96 µM	105%	108%	110%	134%	131%	Proliferative	–
Cc1ccc2nc(N3CCCCC3)c(C=NNC(=S)Nc3ccccc3)cc2c1 [Compound 5b, 2-((6-Methyl-2-(piperidin-1-yl)quinolin-3-yl)methylene)-N-phenylhydrazinecarbothioamide]	33.1 ± 0.09 µM	25.1 ± 0.25 µM	106%	107%	139%	169%	227%	Proliferative	–
Cc1ccc2nc(N3CCCCC3)c(C=NNC(=S)NCCN3CCOCC3)cc2c1 [Compound 5m, 2-((6-Methyl-2-(piperidin-1-yl)quinolin-3-yl)methylene)-N-(2-morpholinoethyl)hydrazine carbothioamide]	59.35 ± 0.13 µM	62.3 ± 0.68 µM	94%	102%	109%	107%	115%	Non-cytotoxic	–
Cc1cccc2cc(C=NNC(=S)NCCN3CCOCC3)c(N3CCCCC3)nc12 [Compound 6m, 2-((8-Methyl-2-(piperidin-1-yl)quinolin-3-yl)methylene)-N-(2-morpholinoethyl)hydrazine carbothioamide]	35.1 ± 0.77 µM	21 ± 2.3 µM	97.9%	96.8%	95.3%	97.4%	87.6%	Cytotoxic	–
